Drawing on patent US12077503B2, “Substituted cyclic amides and their use as herbicides” (FMC CORPORATION, priority 2015, dated 2024), this text covers pest or weed control and plant injury for 2 compounds.

Holding throughout (type): in vivo
The subject of assay [1] is barnyardgrass (Echinochloa crus-galli). As to the kind of experiment: Test A preemergence. To be noted: Echinochloa crus-galli, pre-emergence, 240 h, preemergence; for pest or weed control at 125 g/ha: 125 g ai/ha; for pest or weed control at 500 g/ha: 500 g ai/ha. Put shortly: (§1)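 Visual injury scores from 0, no effect, to 100, complete control, were assigned versus untreated controls roughly 10 d after treatment in the greenhouse. Test chemicals, formulated with surfactant in a non-phytotoxic solvent, were applied to planted seeds as a preemergence soil spray or postemergence to one- to two-leaf plants 2 to 10 cm tall, in loam–sand soil.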

Assay [2] deals with ragweed (common ragweed, Ambrosia elatior). Put plainly: Test A preemergence. Particulars: Ambrosia artemisiifolia, pre-emergence, 240 h, preemergence; for pest or weed control at 125 g/ha: 125 g ai/ha; for pest or weed control at 500 g/ha: 500 g ai/ha. Put shortly: as §1
The test system of assay [3] is giant foxtail (Setaria faberii). Put plainly: Test A preemergence. To be noted: Setaria faberi, pre-emergence, 240 h, preemergence; for pest or weed control at 125 g/ha: 125 g ai/ha; for pest or weed control at 500 g/ha: 500 g ai/ha. Put shortly:
as §1

For assay [4], the system named is ryegrass, Italian (Italian ryegrass, Lolium multiflorum). As to the kind of experiment: Test A preemergence. Particulars: Lolium multiflorum, pre-emergence, 240 h, preemergence; for pest or weed control at 125 g/ha: 125 g ai/ha; for pest or weed control at 500 g/ha: 500 g ai/ha. Put shortly:
as §1

In assay [5] the test system is pigweed (Amaranthus retroflexus). Put plainly: Test A preemergence. Particulars: Amaranthus retroflexus, pre-emergence, 240 h, preemergence; for pest or weed control at 125 g/ha: 125 g ai/ha; for pest or weed control at 500 g/ha: 500 g ai/ha.
Assay [6] relates to Kochia (Kochia scoparia). Put plainly: Test A preemergence. To be noted: Bassia scoparia, pre-emergence, 240 h, preemergence; for pest or weed control at 125 g/ha: 125 g ai/ha; for pest or weed control at 500 g/ha: 500 g ai/ha. Put shortly: as §1
For another assay, the system named is rice (Oryra sativa). Put plainly: Test B flooded paddy test. Particulars: Oryza sativa, 250 g ai/ha, Flood, read-out: Rice plant response rating. Put shortly: (§2)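 Rating scale 0–100 (visual, vs untreated controls) after a 13–15 d greenhouse period; application to the flood layer, 3 cm above soil and maintained; plants at 2-leaf stage when treated.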
Assay [7] deals with barnyardgrass (Echinochloa crus-galli). As to the kind of experiment: Test B flooded paddy test. To be noted: Echinochloa crus-galli, 250 g ai/ha, Flood, read-out: Barnyardgrass plant response rating. Put shortly: as §2
Assay [8] has as its system ducksalad (Heteranthera limosa). As to the kind of experiment: Test B flooded paddy test. To be noted: Heteranthera limosa, 250 g ai/ha, Flood, read-out: Ducksalad plant response rating. In outline:
as §2

The subject of assay [9] is sedge, umbrella (small-flower umbrella sedge, Cyperus difformis). Put plainly: Test B flooded paddy test. To be noted: Cyperus difformis, 250 g ai/ha, Flood, read-out: Sedge, Umbrella plant response rating. In outline:
as §2

Assay [10] deals with giant foxtail (Setaria faberii). Put plainly: Test A postemergence. To be noted: Setaria faberi, post-emergence, 240 h; for pest or weed control at 125 g/ha: 125 g ai/ha. In outline: as §1
For assay [11], the system named is Galium (catchweed bedstraw, Galium aparine). Put plainly: Test A postemergence. Particulars: Galium, post-emergence, 240 h; for pest or weed control at 125 g/ha: 125 g ai/ha. Put shortly: as §1
Assay [12] relates to pigweed (Amaranthus retroflexus). Put plainly: Test A postemergence. Particulars: Amaranthus retroflexus, post-emergence, 240 h; for pest or weed control at 125 g/ha: 125 g ai/ha. In outline: as §1
For assay [13], the system named is Kochia (Kochia scoparia). Put plainly: Test A postemergence. To be noted: Bassia scoparia, post-emergence, 240 h; for pest or weed control at 125 g/ha: 125 g ai/ha. Put shortly:
as §1

Assay [14] concerns wheat (Triticum aestivum). As to the kind of experiment: Test A postemergence. Particulars: Triticum aestivum, post-emergence, 240 h; for plant injury at 125 g/ha: 125 g ai/ha. Put shortly:
as §1

Setting [15] is: 0 to 100 scale where 0 is no effect and 100 is complete control.
[16] abbreviates: scale of 0 to 100 where 0 is no effect and 100 is complete control.

Each structure is given as a SMILES string. Where two headings read alike, the source gives them in different places.

In the case of `CSc1ccccc1NC(=O)[C@H]1C(=O)NC[C@@H]1c1cc(C)cc(F)c1` [Compound 1306], the pest or weed control at 125 g/ha in [1] (visual injury rating, 0 to 100 scale where 0 is no effect and 100 is complete control, approximately 10 d, read-out: Barnyardgrass plant response rating) amounted to 60%; in assay [2] (visual injury rating, 0 to 100 scale where 0 is no effect and 100 is complete control, approximately 10 d, read-out: Ragweed plant response rating), 40%; in assay [3] (visual injury rating, 0 to 100 scale where 0 is no effect and 100 is complete control, approximately 10 d, read-out: Foxtail, Giant plant response rating) it was 30%; in assay [4] (visual injury rating, 0 to 100 scale where 0 is no effect and 100 is complete control, approximately 10 d, read-out: Ryegrass, Italian plant response rating) it was 0%; in assay [5] (visual injury rating, 0 to 100 scale where 0 is no effect and 100 is complete control, approximately 10 d, read-out: Pigweed plant response rating) it was 0%; with Kochia (Kochia scoparia) [6] (visual injury rating, 0 to 100 scale where 0 is no effect and 100 is complete control, approximately 10 d, read-out: Kochia plant response rating), 0%. In addition, the pest or weed control at 125 g/ha in [10] (Postemergence, visual rating about 10 d after treatment, read-out: Foxtail, Giant plant response rating (0 to 100 scale)) was determined as 0%; in assay [11] (Postemergence, visual rating about 10 d after treatment, read-out: Galium plant response rating (0 to 100 scale)), 20%; in assay [12] (Postemergence, visual rating about 10 d after treatment, read-out: Pigweed plant response rating (0 to 100 scale)), 0%; with Kochia (Kochia scoparia) [13] (Postemergence, visual rating about 10 d after treatment, read-out: Kochia plant response rating (0 to 100 scale)) it was 0%. The pest or weed control at 500 g/ha in [1] (0 to 100 scale where 0 is no effect and 100 is complete control, read-out: Barnyardgrass plant response rating) worked out at 90%; in assay [2] (0 to 100 scale where 0 is no effect and 100 is complete control, read-out: Ragweed plant response rating), 60%; in assay [3] (0 to 100 scale where 0 is no effect and 100 is complete control, read-out: Foxtail, Giant plant response rating), 90%; in [4] (0 to 100 scale where 0 is no effect and 100 is complete control, read-out: Ryegrass, Italian plant response rating), 0%; in [5] (0 to 100 scale where 0 is no effect and 100 is complete control, read-out: Pigweed plant response rating) it was 0%; in the assay on Kochia (Kochia scoparia) [6] (0 to 100 scale where 0 is no effect and 100 is complete control, read-out: Kochia plant response rating), 70%. The pest or weed control at 500 g/ha in [10] (Postemergence, 500 g ai/ha, visual injury, 0 to 100 scale (0 no effect, 100 complete control), approx. 10 d, read-out: Plant response rating, Foxtail, Giant) came out at 20%; in [11] (Postemergence, 500 g ai/ha, visual injury, 0 to 100 scale (0 no effect, 100 complete control), approx. 10 d, read-out: Plant response rating, Galium), 40%; in assay [12] (Postemergence, 500 g ai/ha, visual injury, 0 to 100 scale (0 no effect, 100 complete control), approx. 10 d, read-out: Plant response rating, Pigweed), 0%; in the assay on Kochia (Kochia scoparia) [13] (Postemergence, 500 g ai/ha, visual injury, 0 to 100 scale (0 no effect, 100 complete control), approx. 10 d, read-out: Plant response rating, Kochia), 60%. In addition, the pest or weed control at 250 g/ha stood at 0% in the assay with rice (Oryra sativa) (setting [15]), 20% in assay [7] (setting [15]), 100% in assay [8] (setting [15]) and 0% in [9] (setting [15]). In assay [14] (Postemergence, visual rating about 10 d after treatment, read-out: Wheat plant response rating (0 to 100 scale)), the plant injury at 125 g/ha is 0%. Also, the plant injury at 500 g/ha in [14] (Postemergence, 500 g ai/ha, visual injury, 0 to 100 scale (0 no effect, 100 complete control), approx. 10 d, read-out: Plant response rating, Wheat) was determined as 0%.

For `O=C1NC[C@H](c2cnc(C(F)(F)F)nc2)[C@H]1C(=O)Nc1ccccc1F` [Compound 741], the pest or weed control at 125 g/ha worked out at 0% in [1] (visual rating after approx. 10 d, 0 to 100 scale where 0 is no effect and 100 is complete control, read-out: Plant response rating, Barnyardgrass); 0% in assay [2] (visual rating after approx. 10 d, 0 to 100 scale where 0 is no effect and 100 is complete control, read-out: Plant response rating, Ragweed); 0% in assay [3] (visual rating after approx. 10 d, 0 to 100 scale where 0 is no effect and 100 is complete control, read-out: Plant response rating, Foxtail, Giant); 0% in [4] (visual rating after approx. 10 d, 0 to 100 scale where 0 is no effect and 100 is complete control, read-out: Plant response rating, Ryegrass, Italian); 0% in [5] (visual rating after approx. 10 d, 0 to 100 scale where 0 is no effect and 100 is complete control, read-out: Plant response rating, Pigweed); 0% with Kochia (Kochia scoparia) [6] (visual rating after approx. 10 d, 0 to 100 scale where 0 is no effect and 100 is complete control, read-out: Plant response rating, Kochia). In addition, the pest or weed control at 125 g/ha in [10] (postemergence, visual injury after approximately 10 d, 0 to 100 scale (0 no effect, 100 complete control), read-out: Plant response rating, Foxtail, Giant) stood at 0%; in assay [11] (postemergence, visual injury after approximately 10 d, 0 to 100 scale (0 no effect, 100 complete control), read-out: Plant response rating, Galium), 0%; in assay [12] (postemergence, visual injury after approximately 10 d, 0 to 100 scale (0 no effect, 100 complete control), read-out: Plant response rating, Pigweed) it was 0%; in the assay with Kochia (Kochia scoparia) [13] (postemergence, visual injury after approximately 10 d, 0 to 100 scale (0 no effect, 100 complete control), read-out: Plant response rating, Kochia), 0%. The pest or weed control at 500 g/ha in [1] (0 to 100 scale, 0 = no effect, 100 = complete control, read-out: Plant response rating, Barnyardgrass) is 0%; in [2] (0 to 100 scale, 0 = no effect, 100 = complete control, read-out: Plant response rating, Ragweed), 0%; in assay [3] (0 to 100 scale, 0 = no effect, 100 = complete control, read-out: Plant response rating, Foxtail, Giant) it was 0%; in assay [4] (0 to 100 scale, 0 = no effect, 100 = complete control, read-out: Plant response rating, Ryegrass, Italian), 0%; in assay [5] (0 to 100 scale, 0 = no effect, 100 = complete control, read-out: Plant response rating, Pigweed), 40%; in the assay with Kochia (Kochia scoparia) [6] (0 to 100 scale, 0 = no effect, 100 = complete control, read-out: Plant response rating, Kochia), 30%. Further, the pest or weed control at 250 g/ha is 0% in the assay with rice (Oryra sativa) (setting [16]), 0% in assay [7] (setting [16]), 90% in assay [8] (setting [16]) and 40% in assay [9] (setting [16]). For the same compound, the plant injury at 125 g/ha in assay [14] (postemergence, visual injury after approximately 10 d, 0 to 100 scale (0 no effect, 100 complete control), read-out: Plant response rating, Wheat) came out at 0%.
